Bridge positions count the residues as written; N and C are the ends. Square brackets hold non-standard residues; d marks the D form. Peptide text beside a SMILES is read from it. * marks the point of attachment. Hydrocinnamoyl(4-Me) = Cc1ccc(CCC(=O)*)cc1; Phenylacetyl(4-Me) = Cc1ccc(CC(=O)*)cc1; 2Naphthoyl = O=C(c1ccc2ccccc2c1)*; X3 = O=C(/C=C/c1ccc(Cl)cc1)*; Lauroyl = CCCCCCCCCCCC(=O)*; X4 = O=C(c1cc2ccccc2[nH]1)*; Decanoyl = CCCCCCCCCC(=O)*; Octanoyl = CCCCCCCC(=O)*; X5 = O=C(/C=C/c1ccccc1)*; Hexanoyl = CCCCCC(=O)*; βAla = NCCC(=O)O
The compounds below were run on MCP-1 (assay: In vitro chemotaxis (trans-well migration) v MCP-1).
Assay type: cell-based, human
Method: To determine whether an agent inhibits a chemokine-induced activity, such as macrophage recruitment, varying amounts of the agent are mixed with cells in the presence of a known chemoattractant. For example, a range of known concentrations of an agent, e.g., a chemokine peptide, is incubated with a defined number (e.g., 10^4-10^6) of human THP-1 monocyte cells in individual wells of the top compartment of a trans-well plate. Chemokine, at a concentration known to cause significant migration of THP-1 cells in the trans-well migration assay, is placed in the lower compartment of a trans-well plate. Cells are then incubated at 37° C. for a period sufficient to allow migration, e.g., 4 hours. After incubation, the cells are gently removed from the top of the filter with a pipette, 20 μl of 20 mM EDTA in simple PBS is added into each top well, and incubated for 20 minutes at 4° C. The filter is carefully flushed with media using a gentle flow, and removed. A standard curve consisting of a two-fold dilution series of THP-1 cells (in 29 μl) is placed to accurately quantify the number of cells that have migrated. Migrated cells are stained with 3 μl of MTT stock dye solution which is added directly into each well (5 mg/ml in RPMI-1640 without phenol red) (Sigma Chemical Co., St. Louis, Mo., USA) and incubated at 37° C. for 4 hours. The media is carefully aspirated from each well, and the converted dye is solubilized by 20 μl of DMSO. Absorbance of converted dye is measured at a wavelength of 595 nm using an ELISA plate reader. The number of migrated cells in each well is then determined by interpolation of the standard curve (see also Imai et al., J. Biol. Chem., 272:15036, 1997). Any method suitable for counting cells can be used, for example, counting with a hemocytometer, incubation of the cells with MTT (see above), or FACS analysis. A negative control assay is also performed, using TGFβ or another non-chemokine chemoattractant (e.g., IL1β or TNFα). To assess whether the agent is cytotoxic, the same concentrations of agent are incubated with THP-1 cells. Agents which 1) are not cytotoxic at levels which inhibit migration, 2) are ineffective at inhibiting the negative control-induced migration, and 3) reduce or inhibit chemokine-induced THP-1 migration, are agents which fall within the scope of the invention.
An EC50 of 15 nM was found for `CC[C@H](C)[C@@H]1NC(=O)[C@H](Cc2c[nH]c3ccccc23)NC(=O)[C@H](CCCCN)NC(=O)[C@@H](NC(=O)c2ccc3ccccc3c2)CSSC[C@@H](C(N)=O)NC(=O)[C@H](CCC(N)=O)NC1=O` [Example 69, 2-Naphthoyl-c(Cys-Lys-Trp-Ile-Gln-Cys)-NH2] (2Naphthoyl-CKWIQC-NH2; disulfide 1-6) in this work. An EC50 of 5 nM was found for `CC[C@H](C)[C@@H]1NC(=O)[C@H](Cc2c[nH]c3ccccc23)NC(=O)[C@H](CCCCN)NC(=O)[C@@H](NC(=O)c2cc3ccccc3[nH]2)CSSC[C@@H](C(N)=O)NC(=O)[C@H](CCC(N)=O)NC1=O` [Example 70, 2-Indolecarboxyl-c(Cys-Lys-Trp-Ile-Gln-Cys)-NH2] (X4-CKWIQC-NH2; disulfide 1-6) in this work. An EC50 of 10 nM was found for `CC[C@H](C)[C@@H]1NC(=O)[C@H](Cc2c[nH]c3ccccc23)NC(=O)[C@H](CCCCN)NC(=O)[C@@H](NC(=O)Cc2ccc(C)cc2)CSSC[C@@H](C(N)=O)NC(=O)[C@H](CCC(N)=O)NC1=O` [Example 71, p-Tolylacetyl-c(Cys-Lys-Trp-Ile-Gln-Cys)-NH2] ({Phenylacetyl(4-Me)}-CKWIQC-NH2; disulfide 1-6) in this work. An EC50 of 8 nM was found for `CC[C@H](C)[C@@H]1NC(=O)[C@H](Cc2c[nH]c3ccccc23)NC(=O)[C@H](CCCCN)NC(=O)[C@@H](NC(=O)/C=C/c2ccccc2)CSSC[C@@H](C(N)=O)NC(=O)[C@H](CCC(N)=O)NC1=O` [Example 72, trans-Ciimamoyl-c(Cys-Lys-Trp-Ile-Gln-Cys)-NH2] (X5-CKWIQC-NH2; disulfide 1-6) in this work. An EC50 of 10 nM was found for `CC[C@H](C)[C@@H]1NC(=O)[C@H](Cc2c[nH]c3ccccc23)NC(=O)[C@H](CCCCN)NC(=O)[C@@H](NC(=O)/C=C/c2ccc(Cl)cc2)CSSC[C@@H](C(N)=O)NC(=O)[C@H](CCC(N)=O)NC1=O` [Example 73, 4-Chlorocinnamoyl-c(Cys-Lys-Trp-Ile-Gln-Cys)-NH2] (X3-CKWIQC-NH2; disulfide 1-6) in this work. An EC50 of 7 nM was found for `CC[C@H](C)[C@@H]1NC(=O)[C@H](Cc2c[nH]c3ccccc23)NC(=O)[C@H](CCCCN)NC(=O)[C@@H](NC(C)=O)CSSC[C@H](C(N)=O)NC(=O)[C@H](CCC(N)=O)NC1=O` [Example 74, Ac-c(Cys-Lys-Trp-Ile-Gln-D-Cys)-NH2] (Ac-CKWIQ[dC]-NH2; disulfide 1-6) in this work. An EC50 of 25 nM was found for `CC[C@H](C)[C@@H]1NC(=O)[C@H](Cc2c[nH]c3ccccc23)NC(=O)[C@H](CCCCN)NC(=O)[C@@H](NC(C)=O)CSSC[C@@H](C(N)=O)NC(=O)[C@@H](CCC(N)=O)NC1=O` [Example 75, Ac-c(Cys-Lys-Trp-Ile-D-Gln-Cys)-NH2] (Ac-CKWI[dQ]C-NH2; disulfide 1-6) in this work. An EC50 of 20 nM was found for `CC[C@@H](C)[C@H]1NC(=O)[C@H](Cc2c[nH]c3ccccc23)NC(=O)[C@H](CCCCN)NC(=O)[C@@H](NC(C)=O)CSSC[C@@H](C(N)=O)NC(=O)[C@H](CCC(N)=O)NC1=O` [Example 76, Ac-c(Cys-Lys-Trp-D-Ile-Gln-Cys)-NH2] (Ac-CKW[dI]QC-NH2; disulfide 1-6) in this work. An EC50 of 20 nM was found for `CC[C@H](C)[C@@H]1NC(=O)[C@@H](Cc2c[nH]c3ccccc23)NC(=O)[C@H](CCCCN)NC(=O)[C@@H](NC(C)=O)CSSC[C@@H](C(N)=O)NC(=O)[C@H](CCC(N)=O)NC1=O` [Example 77, Ac-c(Cys-Lys-D-Trp-Ile-Gln-Cys)-NH2] (Ac-CK[dW]IQC-NH2; disulfide 1-6) in this work. An EC50 of 30 nM was found for `CC[C@H](C)[C@@H]1NC(=O)[C@H](Cc2c[nH]c3ccccc23)NC(=O)[C@@H](CCCCN)NC(=O)[C@@H](NC(C)=O)CSSC[C@@H](C(N)=O)NC(=O)[C@H](CCC(N)=O)NC1=O` [Example 78, Ac-c(Cys-D-Lys-Trp-Ile-Gln-Cys)-NH2] (Ac-C[dK]WIQC-NH2; disulfide 1-6) in this work. An EC50 of 60 nM was found for `CC[C@H](C)[C@@H]1NC(=O)[C@H](Cc2c[nH]c3ccccc23)NC(=O)[C@H](CCCCN)NC(=O)[C@H](NC(C)=O)CSSC[C@@H](C(N)=O)NC(=O)[C@H](CCC(N)=O)NC1=O` [Example 79, Ac-c(D-Cys-Lys-Trp-Ile-Gln-Cys)-NH2] (Ac-[dC]KWIQC-NH2; disulfide 1-6) in this work. An EC50 of 10 nM was found for `CC[C@H](C)[C@@H]1NC(=O)[C@H](Cc2c[nH]c3ccccc23)NC(=O)[C@H](CCCCN)NC(=O)[C@@H](NC(=O)CCc2ccc(C)cc2)CSSC[C@@H](C(N)=O)NC(=O)[C@H](CCC(N)=O)NC1=O` [Example 80, (Des-amino-4-methyl)Phe-c(Cys-Lys-Trp-Ile-Gln-Cys)-NH2] ({Hydrocinnamoyl(4-Me)}-CKWIQC-NH2; disulfide 1-6) in this work. An EC50 of 5 nM was found for `CCCCCC(=O)N[C@H]1CSSC[C@@H](C(N)=O)NC(=O)[C@H](CCC(N)=O)NC(=O)[C@H]([C@@H](C)CC)NC(=O)[C@H](Cc2c[nH]c3ccccc23)NC(=O)[C@H](CCCCN)NC1=O` [Example 81, n-Hexanoyl-c(Cys-Lys-Trp-Ile-Gln-Cys)-NH2] (Hexanoyl-CKWIQC-NH2; disulfide 1-6) in this work. An EC50 of 25 nM was found for `CCCCCCCC(=O)N[C@H]1CSSC[C@@H](C(N)=O)NC(=O)[C@H](CCC(N)=O)NC(=O)[C@H]([C@@H](C)CC)NC(=O)[C@H](Cc2c[nH]c3ccccc23)NC(=O)[C@H](CCCCN)NC1=O` [Example 82, Octanoyl-c(Cys-Lys-Trp-Ile-Gln-Cys)-NH2] (Octanoyl-CKWIQC-NH2; disulfide 1-6) in this work. An EC50 of 20 nM was found for `CCCCCCCCCC(=O)N[C@H]1CSSC[C@@H](C(N)=O)NC(=O)[C@H](CCC(N)=O)NC(=O)[C@H]([C@@H](C)CC)NC(=O)[C@H](Cc2c[nH]c3ccccc23)NC(=O)[C@H](CCCCN)NC1=O` [Example 83, Decanoyl-c(Cys-Lys-Trp-Ile-Gln-Cys)-NH2] (Decanoyl-CKWIQC-NH2; disulfide 1-6) in this work. An EC50 of 15 nM was found for `CCCCCCCCCCCC(=O)N[C@H]1CSSC[C@@H](C(N)=O)NC(=O)[C@H](CCC(N)=O)NC(=O)[C@H]([C@@H](C)CC)NC(=O)[C@H](Cc2c[nH]c3ccccc23)NC(=O)[C@H](CCCCN)NC1=O` [Example 84, Dodecanoyl-c(Cys-Lys-Trp-Ile-Gln-Cys)-NH2] (Lauroyl-CKWIQC-NH2; disulfide 1-6) in this work. An EC50 of 50 nM was found for `CC[C@H](C)[C@@H]1NC(=O)[C@@H](NC(=O)[C@@H](N)Cc2c[nH]c3ccccc23)CSSC[C@@H](C(N)=O)NC(=O)[C@H](CCC(N)=O)NC1=O` [Example 85, Trp-c(Cys-Ile-Gln-Cys)-NH2] (H-WCIQC-NH2; disulfide 2-5) in this work. An EC50 of 7.5 nM was found for `CC[C@H](C)[C@@H]1NC(=O)[C@@H](N)CSSC[C@@H](C(N)=O)NC(=O)[C@H](CCC(N)=O)NC1=O` [Example 86, c(Cys-Ile-Gln-Cys)-NH2] (H-CIQC-NH2; disulfide 1-4) in this work. An EC50 of 15 nM was found for `CC[C@H](C)[C@@H]1NC(=O)[C@H](Cc2c[nH]c3ccccc23)NC(=O)[C@H](CCCCN)NC(=O)CNC(=O)C[C@@H](C(N)=O)NC(=O)[C@H](CCC(N)=O)NC1=O` [Example 87, c(Gly-Lys-Trp-Ile-Gln-Asp)-NH2] (GKWIQD-NH2; lactam N-6) in this work. An EC50 of 9 nM was found for `CC[C@H](C)[C@@H]1NC(=O)[C@H](Cc2c[nH]c3ccccc23)NC(=O)[C@H](CCCCN)NC(=O)CNC(=O)CC[C@@H](C(N)=O)NC(=O)[C@H](CCC(N)=O)NC1=O` [Example 88, c(Gly-Lys-Trp-Ile-Gln-Glu)-NH2] (GKWIQE-NH2; lactam N-6) in this work. An EC50 of 20 nM was found for `CC[C@H](C)[C@@H]1NC(=O)[C@H](Cc2c[nH]c3ccccc23)NC(=O)[C@H](CCCCN)NC(=O)CCNC(=O)CC[C@@H](C(N)=O)NC(=O)[C@H](CCC(N)=O)NC1=O` [Example 89, c((βAla-Lys-Trp-Ile-Gln-Glu)-NH2] ([βAla]KWIQE-NH2; lactam N-6) in this work.

Reference: US20110038885A1, “CHEMOKINE ANALOGS” (priority 2007, published 2011)
